Laboratory results published in ChEMBL document CHEMBL1201862, “PubChem BioAssay data set” (2004).
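Compound exposure: 48 hours, 5 concentrations, 96-well plates. GI50: concentration for 50% inhibition of growth.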 The source made the active and inactive calls. Rule as the data show it: active = GI50 up to about 1.1 µM and inactive = higher.

Key:
Test in all cases: NCI-60 cell line screen, 48 h
SW-620 = test system: SW-620
MCF7 = test system: MCF7
EKVX = test system: EKVX
NCI-H23 = test system: NCI-H23
CAKI-1 = test system: CAKI-1
SK-OV-3 = test system: SK-OV-3
MOLT-4 = test system: MOLT-4
LOX IMVI = test system: LOX IMVI
SF-539 = test system: SF-539
SF-295 = test system: SF-295
UO-31 = test system: UO-31
HOP-92 = test system: HOP-92
UACC-62 = test system: UACC-62
U-251 = test system: U-251
COLO 205 = test system: COLO 205
T47D = test system: T47D
TK-10 = test system: TK-10
Malme-3M = test system: Malme-3M
OVCAR-4 = test system: OVCAR-4

| SMILES | GI50 (SW-620) | GI50 (MCF7) | GI50 (EKVX) | GI50 (NCI-H23) | GI50 (CAKI-1) | GI50 (SK-OV-3) | GI50 (MOLT-4) | GI50 (LOX IMVI) | GI50 (SF-539) | GI50 (SF-295) | GI50 (UO-31) | GI50 (HOP-92) | GI50 (UACC-62) | GI50 (U-251) | GI50 (COLO 205) | GI50 (T47D) | GI50 (TK-10) | GI50 (Malme-3M) | GI50 (OVCAR-4) |
| --- | --- | --- | --- | --- | --- | --- | --- | --- | --- | --- | --- | --- | --- | --- | --- | --- | --- | --- | --- |
| Oc1ccccc1C(c1cc2c(cc1O)OCO2)N1CCOCC1 (configuration not stated) | 23 µM (inactive) | 19.4 µM (inactive) | 50.9 µM (inactive) | 23.6 µM (inactive) | 19.7 µM (inactive) | 19.8 µM (inactive) | 8.24 µM (inactive) | 17.1 µM (inactive) | 20.7 µM (inactive) | 20.6 µM (inactive) | 15.8 µM (inactive) | 17.3 µM (inactive) | 17 µM (inactive) | 16.6 µM (inactive) | 18.7 µM (inactive) | 16.7 µM (inactive) | > 10 µM (inactive) | 17.8 µM (inactive) | – |
| O=C1C=CC(=O)c2ccc(=O)ccc21 | 3.74 µM (inactive) | 28.8 µM (inactive) | 22.4 µM (inactive) | 19.1 µM (inactive) | 9.25 µM (inactive) | 24.1 µM (inactive) | 1.87 µM (inactive) | 4.7 µM (inactive) | 21.8 µM (inactive) | 13.2 µM (inactive) | 15 µM (inactive) | 1.89 µM (inactive) | 13.7 µM (inactive) | 16.4 µM (inactive) | 5.01 µM (inactive) | 2.34 µM (inactive) | 17.6 µM (inactive) | 18.1 µM (inactive) | 9.29 µM (inactive) |
| CC(=O)OC[C@H]1CN(OC(C)=O)C[C@@H](n2cc(C)c(=O)[nH]c2=O)O1 | > 100 µM (inactive) | > 100 µM (inactive) | > 100 µM (inactive) | – | > 100 µM (inactive) | > 100 µM (inactive) | > 100 µM (inactive) | – | > 100 µM (inactive) | > 100 µM (inactive) | > 100 µM (inactive) | – | > 100 µM (inactive) | > 100 µM (inactive) | > 100 µM (inactive) | > 100 µM (inactive) | > 100 µM (inactive) | – | > 100 µM (inactive) |
| Cc1cc(Cl)ccc1/N=N/C(=O)NNc1ccc(Cl)cc1C | 15.9 µM (inactive) | – | – | 15.5 µM (inactive) | – | – | 14 µM (inactive) | 16.9 µM (inactive) | – | – | 13 µM (inactive) | – | 9.04 µM (inactive) | 16.4 µM (inactive) | – | 5.87 µM (inactive) | 18.2 µM (inactive) | 21 µM (inactive) | 17.7 µM (inactive) |
| COc1cc(CCCOC(=O)/C=C/c2ccc(O)c(O)c2)cc(O)c1O | 18.8 µM (inactive) | 24.8 µM (inactive) | > 100 µM (inactive) | 56.4 µM (inactive) | 58.3 µM (inactive) | > 100 µM (inactive) | 27.5 µM (inactive) | 17.6 µM (inactive) | 28.4 µM (inactive) | 35.1 µM (inactive) | 37.5 µM (inactive) | – | 27.9 µM (inactive) | 36.8 µM (inactive) | 94.6 µM (inactive) | 27.9 µM (inactive) | > 100 µM (inactive) | 74 µM (inactive) | 40 µM (inactive) |
| COc1cccc(C2c3cc4c(cc3OC(N3CCCCC3)C2C)OCO4)c1OC (configuration not stated) | 3.93 µM (inactive) | 5.71 µM (inactive) | 13.7 µM (inactive) | 14.3 µM (inactive) | 2.58 µM (inactive) | 12.4 µM (inactive) | 4.42 µM (inactive) | 4.85 µM (inactive) | 12.6 µM (inactive) | 4.27 µM (inactive) | 7.05 µM (inactive) | 5.4 µM (inactive) | 12.9 µM (inactive) | 4.58 µM (inactive) | 7.64 µM (inactive) | 4.1 µM (inactive) | 16.5 µM (inactive) | 11.9 µM (inactive) | – |
| COC(=O)Nc1nc2cc(C(=O)c3cccs3)ccc2[nH]1 [NOCODAZOLE] | 0.0141 µM (active) | 0.0422 µM (active) | 0.0397 µM (active) | 0.0168 µM (active) | 1.11 µM (active) | 0.0165 µM (active) | 0.0205 µM (active) | 0.0214 µM (active) | – | 0.0128 µM (active) | 0.0579 µM (active) | 0.292 µM (active) | 0.0184 µM (active) | 0.0403 µM (active) | 0.0194 µM (active) | > 80.9 µM (inactive) | 2.95 µM (inactive) | 0.0272 µM (active) | 22.3 µM (inactive) |
